Measurements as given in patent US4954487A, “Penetrating topical pharmaceutical compositions” (The Procter & Gamble Company, priority 1989, dated 1990).

Test: Solubility of envelope-disordering compounds in the diol compounds
Details: typical compositions

soluble in the diol compounds / same compositions up to: up to 50 % by weight
SMILES: CCCCCCCCCCO [n-decanol]
